The text below walks through data of PubChem BioAssay (NCI).

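Cells were grown in 96-well plates and exposed to each compound for 48 hours at five concentrations; endpoints were interpolated linearly between bracketing concentrations, or set to the highest concentration if not reached. Here, GI50 denotes the concentration required for 50% inhibition of growth. Definition used: TGI = concentration required for complete inhibition of growth.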

Holding throughout (assay): growth of human tumour cells (NCI), 48 h
Assay [1] relates to LOX IMVI melanoma.
The test system of assay [2] is HS 578T breast.
Assay [3] relates to A549 NSCLC.
In assay [4] the test system is SK-MEL-2 melanoma.
Assay [5] has as its system RXF 393 renal.
Assay [6] deals with NCI/ADR-RES ovarian.
The subject of assay [7] is ACHN renal.
Assay [8] concerns NCI-H460 lung.
Assay [9] concerns BT-549 breast.
In assay [10] the test system is SNB-19 CNS.

For `CS(=O)(=O)Nc1cccc(-c2cc(-c3ccccc3Cl)c(C#N)c(N)n2)c1`, the GI50 is 0.531 µM in [1]; 0.321 µM in [2]; 0.655 µM in assay [3]; 0.602 µM in assay [4]; 0.328 µM in [5]; 0.552 µM in assay [6]. In addition, the GI50 is 0.679 µM in assay [7], 0.417 µM in assay [8], 0.532 µM in assay [9] and 0.859 µM in assay [10]. In addition, the TGI in assay [1] was 17.4 µM; in assay [2], 6.62 µM; in assay [3], 16.6 µM; in assay [4], 15.8 µM; in assay [5], 2.27 µM; in [6], above 22.2 µM. The TGI in [7] stood at 17.6 µM; in assay [8], 11.5 µM; in assay [9], 15.4 µM; in [10] it was 19.6 µM.
For the compound `Cc1nc(CN2CCCCC2)c(O)c(=O)[nH]1`, the TGI in [1], in assay [2], in assay [3], in [4], in assay [5] and in [6] was above 100 µM throughout. Moreover, the TGI in [7], in assay [8], in [9] and in [10] was above 100 µM each time.
For `N#CC(C#N)N=Nc1ccc(Br)cc1`, the GI50 in [1] was 3.75 µM; in [2], 13.4 µM; in assay [3], 47.9 µM; in assay [4], 8.97 µM; in [5], 3.63 µM; in assay [6] it was 4.73 µM. Moreover, the GI50 is 1.99 µM in assay [7], 11.5 µM in assay [8], 4.18 µM in assay [9] and 27.5 µM in [10]. For the same compound, the TGI in assay [1] is 16.5 µM; in assay [2] it was above 73.8 µM; in assay [3], above 100 µM; in [4] it was 36.1 µM; in assay [5], 14 µM; in [6] it was above 100 µM. Also, the TGI was 7.89 µM in assay [7], above 100 µM in assay [8], 31.5 µM in assay [9] and above 100 µM in assay [10].
For the compound `CCN(CC)c1ccc2c(c1)Oc1nc(N)c(C#N)c(N)c1C2Sc1ccc(OC)cc1` (stereo not given), the GI50 in [1] was 1.56 µM; in assay [2] it was 2.17 µM; in assay [3] it was 1.99 µM; in assay [4], 1.56 µM; in [5], 1.88 µM; in [6], 2.81 µM. Moreover, the GI50 was 1.59 µM in assay [7], 1.94 µM in assay [8], 1.53 µM in assay [9] and 1.8 µM in assay [10]. The TGI in assay [1] amounted to 3.07 µM; in assay [2] it was 6.11 µM; in assay [3], 3.59 µM; in assay [4], 3.14 µM; in [5] it was 3.35 µM; in assay [6], 8.86 µM. Besides, the TGI in assay [7] turned out to be 2.94 µM; in assay [8] it was 3.81 µM; in assay [9] it was 2.95 µM; in assay [10], 3.26 µM.
As to `O=C(O)c1ccc(S(=O)(=O)Nc2ccc3oc4c(c3c2)C(=O)CCC4)cc1`, the GI50 in [1], in assay [2], in assay [3], in assay [4], in assay [5] and in assay [6] was above 100 µM each time. Further, the GI50 in assay [7], in assay [8], in [9] and in [10] was above 100 µM each time. Further, the TGI in [1], in [2], in assay [3], in [4], in [5] and in [6] was above 100 µM each time. Also, the TGI in assay [7], in assay [8], in assay [9] and in assay [10] was above 100 µM throughout.
Take `CC(C)CC(=O)Nc1n[nH]c2c1CN(C(=O)C1CCN(C)CC1)C2(C)C`: the GI50 in [1] is 0.209 µM; in assay [2] it was 0.712 µM; in assay [3], 1.15 µM; in assay [4], 0.524 µM; in [5] it was 1.22 µM; in assay [6], above 10 µM. Further, the GI50 in [7] is above 10 µM; in [8], 0.309 µM; in [9] it was 3.86 µM; in assay [10], 1.05 µM. Also, the TGI in assay [1] was 8.63 µM; in assay [2], above 10 µM; in assay [3] it was above 10 µM; in assay [4], 2.8 µM; in [5] it was 4.04 µM; in [6], above 10 µM. Also, the TGI in assay [7], in assay [8], in assay [9] and in [10] was above 10 µM throughout.
Consider `CS(=O)(=O)CCNCc1ccc(-c2ccc3ncnc(Nc4ccc(OCc5cccc(F)c5)c(C(F)(F)F)c4)c3c2)o1`, for which the GI50 in assay [1] was 3.96 µM; in [2], 3.88 µM; in assay [3] it was 4.23 µM; in assay [4], 4.51 µM; in [5], 2.85 µM; in assay [6], 5.54 µM. The GI50 is 4.14 µM in [7], 4.1 µM in [8], 4.9 µM in assay [9] and 4.81 µM in assay [10]. The TGI in [1] was 8.13 µM; in assay [2], 13.5 µM; in assay [3], 9.27 µM; in assay [4] it was 8.96 µM; in assay [5] it was 6.15 µM; in assay [6], 20.7 µM. Moreover, the TGI in assay [7] is 8.67 µM; in assay [8], 8.51 µM; in [9] it was 11.9 µM; in assay [10], 11.4 µM.
For `O=C(/C=N/O)Nc1cc(Cl)c(Cl)cc1Cl`, the TGI in assay [1] is above 100 µM; in assay [2] it was 85.5 µM; in assay [3], above 100 µM; in [4], 54.2 µM; in assay [5], 95.3 µM; in [6] it was above 100 µM. For the same compound, the TGI is above 100 µM in [7], above 100 µM in [8], 89.3 µM in assay [9] and above 100 µM in assay [10].
Take `CCN1C2=NCCN2S(=O)(=O)c2ccccc21`: the TGI in [1], in [2], in assay [3], in [4], in assay [5] and in assay [6] was above 100 µM throughout. The TGI in assay [7], in [8], in assay [9] and in [10] was above 100 µM in each case.
Consider `Cc1nccc2c3ccc(OCc4cn(-c5ccc(Cl)cc5)nn4)cc3n(CCCc3ccccc3)c12`, for which the GI50 in assay [1] was 1.08 µM; in assay [2] it was 0.844 µM; in assay [3], 2.3 µM; in assay [4] it was above 33.3 µM; in assay [5] it was 4.45 µM; in assay [6], 0.644 µM. Besides, the GI50 was 1.57 µM in assay [7], 2.74 µM in [8], 7.35 µM in assay [9] and above 33.3 µM in [10]. For the same compound, the TGI in assay [1] was 4.88 µM; in assay [2] it was 2.48 µM; in assay [3] it was above 33.3 µM; in [4] it was above 33.3 µM; in assay [5] it was 11.6 µM; in [6], 1.72 µM. Further, the TGI was 8.5 µM in [7], 17.9 µM in [8], 19.6 µM in [9] and above 33.3 µM in [10].
`COc1cc2c3c(n(CCCNCCCNCCCNCCCN)c(=O)c2cc1OC)-c1cc2c(cc1C3=O)OCO2`: the GI50 was 1.15 µM in assay [1]; 2.78 µM in [2]; 2.2 µM in [3]; 4.78 µM in assay [4]; 1.7 µM in assay [5]; 1.83 µM in assay [6]. Also, the GI50 in assay [7] was 3.1 µM; in assay [8], 1.32 µM; in assay [9], 2.2 µM; in assay [10], 2.23 µM. Besides, the TGI in assay [1] is 3.25 µM; in assay [2], 8.42 µM; in [3], 11.7 µM; in assay [4] it was 89 µM; in assay [5], 4.46 µM; in [6] it was 3.22 µM. The TGI amounted to 12 µM in assay [7], 4.25 µM in assay [8], 6.44 µM in assay [9] and 15.4 µM in assay [10].
`N#CSc1c[nH]c2ccc(/C=C/C(=O)/C=C(/C=C/c3ccc4[nH]cc(SC#N)c4c3)OB(F)F)cc12`: the GI50 is 0.202 µM in assay [1]; 1.36 µM in assay [2]; 3.31 µM in assay [3]; 2.92 µM in assay [4]; 0.24 µM in assay [5]; 1.74 µM in assay [6]. The GI50 was 0.208 µM in assay [7], 0.763 µM in [8], 0.835 µM in assay [9] and 3.32 µM in [10]. Further, the TGI was 0.571 µM in assay [1]; above 100 µM in assay [2]; 17.6 µM in assay [3]; 8.04 µM in [4]; 0.852 µM in assay [5]; above 100 µM in assay [6]. Further, the TGI was 0.471 µM in assay [7], 2.37 µM in assay [8], 3.43 µM in assay [9] and 14.7 µM in assay [10].
On to `CN(C)C/C=C/C(=O)Nc1cc2c(Nc3ccc(F)c(Cl)c3F)ncnc2cc1OCCOC(F)F`, for which the GI50 in assay [1] was 0.958 µM; in assay [2], 0.764 µM; in assay [3], 0.596 µM; in [4], 1.46 µM; in assay [5], 0.241 µM; in [6] it was 0.499 µM. Further, the GI50 in assay [7] was below 0.01 µM; in assay [8], 2.34 µM; in assay [9], 1.57 µM; in assay [10], 1.57 µM. In addition, the TGI in assay [1] was 2.25 µM; in assay [2], 6.19 µM; in [3], 10.2 µM; in assay [4] it was 3.36 µM; in [5], 1.6 µM; in assay [6] it was 3.74 µM. The TGI was 1.08 µM in assay [7], 10.5 µM in assay [8], 6.86 µM in assay [9] and 11.6 µM in assay [10].
As for `CCN(CC)CCCC(C)Nc1nc(C)cc(Nc2ccc3nc(C)cc(N)c3c2)n1` (stereo not given), the GI50 in [1] is 18.4 µM; in assay [2], 24.6 µM; in assay [3], above 100 µM; in assay [4], 56.6 µM; in [5] it was 55.1 µM; in assay [6], above 100 µM. For the same compound, the GI50 in assay [7] is above 100 µM; in [8], 24.3 µM; in [9], 19.2 µM; in assay [10], 24.7 µM. The TGI in assay [1] was 39.8 µM; in assay [2] it was 65.1 µM; in [3], above 100 µM; in [4], above 100 µM; in [5], above 100 µM; in assay [6] it was above 100 µM. Moreover, the TGI in assay [7] is above 100 µM; in [8] it was 62.8 µM; in [9], 56.7 µM; in [10] it was 97 µM.
In the case of `COc1ccc(-c2nc(C(=O)c3ccccc3)n(CC(=O)c3ccccc3)c2-c2ccc(OC)cc2)cc1`, the GI50 in assay [1], in assay [2], in assay [3], in assay [4], in [5] and in [6] was above 100 µM throughout. Moreover, the GI50 in assay [7], in assay [8], in assay [9] and in assay [10] was above 100 µM throughout. Besides, the TGI in [1], in assay [2], in [3], in assay [4], in assay [5] and in [6] was above 100 µM in each case. Further, the TGI in assay [7], in assay [8], in [9] and in assay [10] was above 100 µM in each case.
As for `Cc1cc(Nc2c3ccccc3nc3ccccc23)ccc1NS(C)(=O)=O`, the GI50 is 3.13 µM in [1]; 2.45 µM in [2]; 2.85 µM in [3]; 3.42 µM in assay [4]; 3.46 µM in assay [5]; 5.63 µM in [6]. Further, the GI50 in assay [7] was 2.96 µM; in assay [8], 3.07 µM; in assay [9] it was 10.3 µM; in assay [10] it was 5.65 µM. The TGI was 13.5 µM in assay [1]; 11.7 µM in assay [2]; 12 µM in assay [3]; 10.6 µM in assay [4]; 16 µM in [5]; 52.5 µM in [6]. Moreover, the TGI in [7] is 12.5 µM; in assay [8], 11.6 µM; in [9], 22.5 µM; in assay [10], 35.9 µM.
